# Experimental data reported in patent publication US20180155429A1, “TREATMENT OF PD-L1 POSITIVE LUNG CANCER USING AN ANTI-PD-1 ANTIBODY” (Bristol-Myers Squibb Company, priority 2015, published 2018).
# Key:
# [1] = Randomized phase III study of nivolumab versus docetaxel, exposure and safety; type: in vivo, human; settings: for Treatment-related deaths: at DBL, treated pts
# Protocol: (§1) 582 patients were randomized to receive either nivolumab or docetaxel. 292 were randomized to receive nivolumab, and of these, 287 actually received nivolumab. 290 were randomized to receive docetaxel, and of these, 268 actually received docetaxel. Patients were treated with nivolumab at 3 mg/kg IV Q2W until they experienced a progressive disease or unacceptable toxicity. Patients were treated with docetaxel at 75 mg/m^2 IV Q3W until progressive disease or unacceptable toxicity occurred. The primary end point of the study was overall survival (OS). The secondary endpoints of the study were overall response rate (ORR) (Per RECIST v1.1 criteria as determined by the investigator), progression free survival (PFS) (Per RECIST v1.1 criteria as determined by the investigator), efficacy by tumor PD-L1 expression, and disease-related symptom improvement rate by week 12. An overview of the trial can be seen in FIGS. 1A and 1B.
# [2] = system: advanced non-squamous (non-SQ) NSCLC; test: Randomized phase III study of nivolumab versus docetaxel, efficacy (OS, PFS, ORR, DOR, also by tumor PD-L1 expression); type: in vivo, human; settings: for Best overall response CR / Best overall response PD / Best overall response PR / Best overall response SD / Best overall response Unable to determine: Nivo N = 292, Doc N = 290; for mOS: PD-L1+ patients; for 1-year PFS rate / median OS / 1-year OS rate: all randomized pts; for 1-year OS rate: nivolumab 3 mg/kg IV Q2W, docetaxel 75 mg/m^2 IV Q3W; for Median time to response: all responders (NIVO, n = 56; DOC, n = 36); for Ongoing response: at last tumor assessment before censoring, responders
# Protocol: as §1
# All patients had either stage IIIB or stage IV non-squamous NSCLC and 1 prior PT-DC treatment. Prior maintenance therapy with pemetrexed, bevacizumab or erlotinib was allowed (and was not considered a separate line of therapy). Prior TKI therapy was allowed for a known ALK translocation or EGFR mutation. The ECOG PS was 0-1. Patients were stratified by prior maintenance therapy and line of therapy (second-vs third-line)
# In this example, ALK means anaplastic lymphoma kinase; ECOG PS means Eastern Cooperative Oncology Group performance status; EGFR means epidermal growth factor receptor; IV means intravenous; LCSS means Lung Cancer Symptom Scale; ORR means objective response rate; OS=overall survival; PFS=progression-free survival; PD=progressive disease; and TKI means tyrosine kinase inhibitor.
# The PD-L1 expression was measured for the patients. The DAKO PD-L1 Assay Analytical Validation and Clinical Sample Testing is described in Table 3.
# [3] = cited from earlier work
# PD-1 = molecular target: T1, PD-1 (Homo sapiens, UniProt Q15116); settings: 15 subjects, 0.3 mg/kg to 10 mg/kg, across all doses, cited from earlier work
# T1 construct: Receptor-occupancy data from 15 subjects who received 0.3 mg/kg to 10 mg/kg dosing with nivolumab indicate that PD-1 occupancy appears to be dose-independent; endogenous in cells
# [4] = all randomized pts (Nivo N = 292, Doc N = 290), RECIST v1.1, investigator
# T1 sequence (Q15116 25-288): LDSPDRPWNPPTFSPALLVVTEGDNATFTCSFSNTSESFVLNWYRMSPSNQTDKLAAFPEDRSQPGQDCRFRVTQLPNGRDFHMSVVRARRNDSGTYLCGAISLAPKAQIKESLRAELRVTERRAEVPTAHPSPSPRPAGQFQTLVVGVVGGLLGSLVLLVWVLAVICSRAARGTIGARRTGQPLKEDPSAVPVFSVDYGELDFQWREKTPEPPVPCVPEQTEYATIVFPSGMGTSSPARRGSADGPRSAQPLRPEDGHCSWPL
Compound,Treatment-related deaths [1],Best overall response CR [2],Best overall response PD [2],Best overall response PR [2],Best overall response SD [2],Best overall response Unable to determine [2],mOS ([2]; 1% expression level) [months],mOS ([2]; 5% expression level) [months],mOS ([2]; 10% expression level) [months],Median DOR ([2]; PD-L1 Negative (<1%)) [mos],ORR ([2]; PD-L1 Negative (<1%)) [%],Median DOR ([2]; PD-L1 Negative (<5%)) [mos],ORR ([2]; PD-L1 Negative (<5%)) [%],Median DOR ([2]; PD-L1 Negative (<10%)) [mos],ORR ([2]; PD-L1 Negative (<10%)) [%],Median DOR ([2]; PD-L1 Not quantifiable) [mos],ORR ([2]; PD-L1 Not quantifiable) [%],Median DOR ([2]; PD-L1 Positive (≥1%)) [mos],ORR ([2]; PD-L1 Positive (≥1%)) [%],Median DOR ([2]; PD-L1 Positive (≥5%)) [mos],also measured
nivolumab,0^8,(1.4) %,(44) %,(18) %,(25) %,(11) %,17.2,18.2,19.4,18.3,9.3,18.3,10,18.3,11,7.3,13,16.0,31,16.0,"safety profile ([1]; in vivo): favorable vs docetaxel; Estimated odds ratio (95% CI) for ORR ([2]; Nivo vs Doc, P-value 0.0246): 1.7 (1.1, 2.6); ORR ([2]; PD-L1 Positive (≥5%)): 36%; Median DOR ([2]; PD-L1 Positive (≥10%)): 16.0 mos; ORR ([2]; PD-L1 Positive (≥10%)): 37%; 1-year PFS rate [2]: 19%; median OS [2]: 12.2 months; ORR [2, 4]: 19%; 1-year OS rate [2]: 51%; Median DOR ([2]; all responders): 17.2 mos; Median time to response [2]: 2.1 mos; Ongoing response [2]: (52) %; reduction in risk of death ([2]; nivolumab in comparison to docetaxel): 27%; HR (risk of death) ([2]; nivolumab in comparison to docetaxel, P=0.0015): 0.73; tolerated dose ([3]; given intravenously every 2 weeks): up to 10 mg/kg; maximum tolerated dose (MTD) ([3]; nivolumab monotherapy every two weeks, MTD not reached): > 10 mg/kg; mean plateau PD-1 occupancy (PD-1; range 59% to 81%): 72%; mean PD-1 occupancy rate (PD-1; range 70% to 97%): 85%"
"CC(=O)O[C@@]12CO[C@@H]1C[C@H](O)[C@@]1(C)C(=O)[C@H](O)C3=C(C)[C@@H](OC(=O)[C@H](O)[C@@H](NC(=O)OC(C)(C)C)c4ccccc4)C[C@@](O)([C@@H](OC(=O)c4ccccc4)[C@H]21)C3(C)C [docetaxel, reference compound]",0.4^9,(0.3) %,(29) %,(12) %,(42) %,(16) %,9.0,8.1,8.0,5.6,15,5.6,14,5.6,14,6.6,9.1,5.6,12,5.6,"Treatment-related select AE: Hypothyroidism ([1]; human, in vivo): 0%; Treatment-related select AE: Pneumonitis ([1]; human, in vivo): 0.4%; ORR ([2]; PD-L1 Positive (≥5%)): 13%; Median DOR ([2]; PD-L1 Positive (≥10%)): 5.6 mos; ORR ([2]; PD-L1 Positive (≥10%)): 13%; 1-year PFS rate [2]: 8.1%; median OS [2]: 9.4 months; ORR [2, 4]: 12%; 1-year OS rate [2]: 39%; Median DOR ([2]; all responders): 5.6 mos; Median time to response [2]: 2.6 mos; Ongoing response [2]: (14) %"
